Experimental data: US4246271A, “4-Phenyl-2-thiazolyl-oxamates useful in the treatment of asthma” (priority 1978, dated 1981)

Columns and labels:
[1] = test system: mice; assay: Acute toxicity after a single oral administration in mice (Miller & Tainter); assay type: in vivo; details: 1000 mg/kg, 10 mice per lot, suspension of Tween 80 + distilled water
Experimental: (§1) (1) Toxicology (acute toxicity after a single oral administration in mice by the method of Miller & Tainter (Proc. Soc. Exper. Biol. Med., 1944, 57, 261)).
(§2) The products are administered in a suspension of Tween 80+distilled water. The mortality is noted at the end of 7 days. The following table summarizes the results obtained: […]

[2] = as above; assay type: in vivo; details: mouse, in vivo, mice, mortality noted at the end of 7 days, read-out: LD50 approximate
Experimental: as §1, §2

[3] = test system: rats; assay: Cutaneous passive anaphylaxis test; assay type: in vivo; details: Rattus norvegicus, po; per os, 10 minutes before intravenous injection of antigen + stain; tested at 30, 5, 1 and 0.2 mg/kg, lots of 10 rats; suspension in Tween and water; read-out: ED50 (dose which reduces by one-half the leakage of the stain as compared with the controls)
Experimental: The results are obtained on the cutaneous passive anaphylaxis test in accordance with the method of Broeklehurst W. E. in Handbook of Experimental Immunology, Editor Weiz D. M., Blackwell Scientific Publications, Oxford and Edinborough, pages […] (1967).
(a) Prepare the antiserum on rats sensitized by antigen; inject it intradermally.
(b) Leave a waiting time of 24 to 48 hours.
(c) Administration of the product to be tested per os 10 minutes before operation (d) (intravenous simultaneously with d).
(d) Intravenous injection of the antigen+stain.
(e) Sacrifice 30 minutes afterwards and visualize the antigen-antibody reaction by the leakage of the stain due to the increase of the capillary permeability under the combined influence of histamine and SRSA.
This action is expressed as ED50, i.e., the dose which reduces by one-half the leakage of the stain as compared with the controls.
The tests were carried out in succession with 30, 5, 1 and 0.2 mg/kg on homogeneous lots of 10 rats, with due consideration of their insolubility in water. These compounds are administered in suspension in Tween™ and water.

[4] = Solubilities; assay type: physicochemical; details: for Solubility in DMSO: DMSO / dimethyl sulfoxide

Compound	Mortality at end of 7th day [1]	LD50 at 168 h [2] [mg/kg]	ED50 [3] [mg/kg]	Solubility in DMSO [4] [%]	Solubility in ethanol (in words) ([4]; ethanol)	Solubility in methyl pyrrolidone [4] [%]	Solubility in water [4]	Solubility in dimethyl acetamid ([4]; dimethyl acetamid) [%]	Solubility in ethanol ([4]; ethanol) [%]
CCOC(=O)C(=O)Nc1nc(-c2ccc(OC)cc2)cs1 [Example 3, Ethyl-(4-paramethoxyphenyl-2-thiazolyl)-oxamate]	1	> 1000	2	50	insoluble	50	insoluble		
CCOC(=O)C(=O)Nc1nc(-c2ccc(Cl)cc2)cs1 [Example 2, Ethyl-(4-p-chlorophenyl-2-thiazolyl)-oxamate]	0	> 1000		1	insoluble	4	insoluble		
CCOC(=O)C(=O)Nc1nc(-c2ccccc2)cs1 [Example 1, Ethyl-(4-phenyl-2-thiazolyl)-oxamate]	1	> 1000	1		insoluble	25	insoluble	20	
O=C(Nc1nc(-c2ccccc2Br)cs1)C(=O)OCc1ccccc1 [Example 5, Benzyl-(4-orthobromophenyl-2-thiazolyl)-oxamate]	2	> 1000							
Nc1nc(-c2ccc(Cl)cc2)cs1 [4-parachlorophenyl-2-amino-thiazole]							insoluble		15
Cc1cccc(-c2csc(NC(=O)C(=O)OCc3ccccc3)n2)c1 [Example 4, Benzyl-(4-metamethylphenyl-2-thiazolyl)-oxamate]	1	> 1000							
